Laboratory results taken from patent US10449348B2, “Devices and methods for enhancing the topical application of a benefit agent” (Johnson & Johnson Consumer Inc., priority 2015, dated 2019).

Test: In vitro skin permeation study, Franz diffusion cell, passive diffusion or sonophoresis
Type: in vitro ADME, human
Description: The experimental setup to run sonophoresis (ultrasound) studies with Franz cell diffusion cells consisted of a custom-built universal generator capable of driving ultrasonic transducers in the 20 kHz-2 MHz range with electronic power up to 60 W (Voltage+/−30V, Current: 2 A, duty cycle 50%) with a square waveform. The real power delivered to the transducer depended on the specific experimental conditions and is specified for each experiment. The driving waveform was delivered to the transducer through a coaxial cable having a BNC connector at one end and a custom non-coaxial connector at the transducer end.
The transducer was piezoelectric and had either a disk shaped form (either 20 or 25 mm in diameter) or a rectangular shape 10×20 mm^2). The thickness of the transducer depended on its fundamental frequency being inversely proportional with it. In order to prevent the liquid or the gel from perturbing the electrical connection, each transducer was encapsulated in a plastic case leaving only one side of the transducer exposed to the topical composition. The case was made out of a rigid plastic and the transducers were sealed with silicone adhesive to enable them to oscilalte more or less freely. The case also enabled the electrical connections to be isolated from the topical composition.
For sonophoresis experiments where the ultrasonic wave energy was delivered perpendicular to the skin, disk-shaped transducers were used in the encapsulation setup described above. For the angled ultrasound application the case encapsulating the ultrasonic transducer was assembled in a hinged configuration, enabling angles between 15 and 90 degrees (perpendicular). Note: an angle of 0 degrees would send the ultrasonic wave parallel with the skin surface.
In vitro skin permeation studies on 5% Ibuprofen gel compositions without ultrasound (passive diffusion), or facilitated by the application of ultrasound (sonophoresis), through human cadaver skin were performed as follows:
A skin penetration study evaluated the penetration of ibuprofen through the human skin for the inventive sample prepared as disclosed in Example 1. A commercial ibuprofen gel product, IBULEVE Ibuprofen Gel (by DDD ltd, Watford, Herts, WD18 7JJ, UK) was used as a benchmark, which contains 5% W/W ibuprofen, also IMS (Industrial Methylated Spirits), carbomer, propylene glycol, diethylamine and purified water according to the product label on its package. A well-known Franz diffusion cell method (taught in US20020006418 A1 which is hereby incorporated by reference) was used. […] A magnetic stirrer bar was added in the […]. The liquid receptor was filled with Phosphate-buffered saline (PBS) solution. Air bubbles in the […] were removed. The system was thermostated at 37° C. above a magnetic stirrer to ensure the homogeneity of the liquid receptor during the experiment. A human cadaver skin sample from a commercial tissue bank (Ohio Valley Tissue and Skin Center, Cincinnati, Ohio, dermatomed to approximately 0.4 mm) was cut to fit the glass diffusion cell and the skin was mounted on the Franz cell.
For the diffusion cells designated to be tested for passive diffusion, a test gel sample of 0.2 ml was applied on the skin surface. For the diffusion cells designated to test for sonophoresis, additional test sample (2-5 ml) was added in order to assure the entire, or at least a large portion, of the ultrasonic transducer tip was immersed by the test gel during the ultrasound treatment. The excess gel was promptly removed from the donor cell after the ultrasound treatment so that the remaining test gel was approximately 0.2 ml.
Ultrasound treatments were carried out with the following test conditions: • a) Conventional ultrasound treatment with 90 degree angle (°) between the ultrasound direction and the skin surface; • b) Angled Ultrasound treatment with less than 90 degree angle between the ultrasound direction and the skin surface. […]

permeation enhancement factor (15 degree UT sonophoresis vs without ultrasound, 6th hour): approximately 3.0 fold
permeation enhancement factor (15 degree UT sonophoresis vs without ultrasound, 24th hour): approximately 3.0 fold
ibuprofen permeation through the human skin versus no ultrasound (15 degree ultrasound treatment): significantly enhanced
ibuprofen permeation through the human skin versus no ultrasound (45 degree angled sonophoresis): significantly enhanced
permeation enhancement factor (60 degree UT sonophoresis vs without ultrasound, 6th hour): approximately 2.9 fold
permeation enhancement factor (60 degree UT sonophoresis vs without ultrasound, 24th hour): ~2.0 fold
ibuprofen permeation through the human skin versus no ultrasound (60 degree angled sonophoresis): significantly enhanced
permeation enhancement factor (90 degree UT sonophoresis vs without ultrasound, 6th hour): approximately 2.3 fold
permeation enhancement factor (90 degree UT sonophoresis vs without ultrasound, 24th hour): ~2.0 fold
ibuprofen permeation through the human skin versus no ultrasound (90 degree ultrasound treatment): significantly enhanced
SMILES: CC(C)Cc1ccc(C(C)C(=O)O)cc1 (stereo not shown) [ibuprofen]
